In experiment [1] the test system is hPSC-derived endothelial cells. The experiment is described as follows: Monolayer integrity: transendothelial electrical resistance (TEER). Type of experiment: cell-based, human. The settings on record: 100 ng/mL VEGF or 10 μM oME, versus control.
The test system of experiment [2] is hPSC-derived endothelial cells. Put plainly: Monolayer integrity: 40-kDa FITC-dextran permeability. The class given is cell-based, human. The conditions noted are these: 100 ng/mL VEGF or 10 μM oME, 24 hr of treatment, versus control.
Another experiment has as its system 19-9-11 iPSCs. The experiment is described as follows: Angioblast differentiation of hPSCs, flow cytometry of CD34 and CD31 at day 5. The conditions noted are these: for induction of angioblast differentiation (percentage of CD34^+CD31^+ cells): 0.6 μM CHIR98014 or 0.6 μM BIO-acetoxime 2 days in LaSR medium, then StemPro-34 3 days, no VEGF, compared with 6 μM CHIR99021. The class given is cell-based, human. Here is the method:
Cells were then cultured in mTeSR1, changed daily. At day 0, cells were treated with 6-10 μM CHIR99021 (Selleckchem) for 2 days in LaSR basal medium, which consists of Advanced DMEM/F12, 2.5 mM GlutaMAX, and 60 μg/ml ascorbic acid (Sigma, A8960). […] Cells were dissociated into single cells with Accutase for 10 min and then fixed with 1% paraformaldehyde for 20 min at room temperature and stained with primary and secondary antibodies (Table 2) in PBS plus 0.1% Triton X-100 and 0.5% BSA. Data were collected on a FACSCaliber flow cytometer (Becton Dickinson) and analyzed using FlowJo.
(In general: In flow cytometry, cells or beads pass a laser one at a time.)

Another experiment has as its system 19-9-11 ishcat iPSCs. Put plainly: Flow cytometry analysis of Brachyury expression during differentiation. The class given is cell-based, human. The conditions noted are these: 6 μM CHIR99021, in the absence of dox. The method, then:
FIG. 8 Knockdown of β-catenin abolishes endothelial differentiation of hPSCs 19-9-11 ishcat iPSCs were cultured in LaSR basal medium containing 6 μM CH and/or 2 μg/ml doxycycline for 2 days. Flow cytometry analysis of Brachyury expression was performed after 2 days of differentiation.
Cells were dissociated into single cells with Accutase for 10 min and then fixed with 1% paraformaldehyde for 20 min at room temperature and stained with primary and secondary antibodies (Table 2) in PBS plus 0.1% Triton X-100 and 0.5% BSA. Data were collected on a FACSCaliber flow cytometer (Becton Dickinson) and analyzed using FlowJo.

The next experiment concerns H9 cells. Put plainly: Angioblast differentiation of hPSCs with PD0325901 addition, flow cytometry of CD34 and CD31 at day 5. The settings on record: 1 μM PD0325901 added during differentiation induced with 6 μM CHIR99021. Type of experiment: cell-based, human. The method, then:
FIG. 2 CD34^+CD31^+ angioblast differentiation induced by Gsk3 inhibitors in hPSCs is β-catenin dependent. […] At day 5, the percentage of CD34^+CD31^+ cells in culture was assessed by flow cytometry. (B) 19-9-11 iscramble and 19-9-11 […] cultured in mTeSR1 containing 2 μg/ml doxycycline. After 3 days, mRNA was collected and β-catenin expression evaluated by qPCR. Error bars represent the s.e.m. of 3 biological replicates. # […] versus iscramble; […] cultured in LaSR medium containing 6 μM CHIR99021 for 2 days before exposure to StemPro-34 medium for 3 days, with 2 μg/ml dox addition at the indicated times. 5 days after initiation of differentiation, cells were analyzed for CD34 and CD31 expression by flow cytometry. Error bars represent the s.e.m. of three independent experiments. […] hPSCs maintained on a MatrigelTM-coated surface in mTeSR1 were dissociated into single cells with Accutase (Life Technologies) at 37° C. for 5 min and then seeded onto a MatrigelTM-coated cell culture dish at 50,000 cell/cm^2 in mTeSR1 supplemented with 5 μM ROCK inhibitor Y-27632 (Selleckchem)(day -3) for 24 hours. Cells were then cultured in mTeSR1, changed daily. […] Data were collected on a FACSCaliber flow cytometer (Becton Dickinson) and analyzed using FlowJo.

The test system of experiment [3] is hPSC-derived endothelial cells. Put plainly: Flow cytometry analysis of ICAM-1 surface expression after TNF-α treatment. The class given is cell-based, human. The settings on record: 10 ng/mL TNF-α for 16 hours versus unstimulated cells. From the text: FIG. 6 Characterization of endothelial cells derived from hPSCs (A) 19-9-11 iPSCs were differentiated as illustrated in FIG. 3A using LaSR basal medium. At day 5, CD34^+ cells were enriched and cultured in endothelial medium on laminin-coated plates. At different time points, the cell numbers were counted. (B-D) the purified day 60 endothelial cells were immunostained with (B) VE-cadherin and CD31, and tested for (C) tube-forming ability upon VEGF treatment and the ability to (D) uptake acetylated low-density lipoprotein (AcLDL). (E) Flow cytometry analysis of surface protein expression of ICAM-1 of untreated cells or cells treated with 10 ng/mL TNF-α for 16 hours. Error bars represent the s.e.m. of three independent experiments. (F-G) Barrier phenotype of the hPSC-derived endothelial cells. […] Barrier function was assessed by measuring transendothelial electrical resistance (TEER) 48 hours after seeding. […] (F) Transendothelial electrical resistance (TEER) was measured as a function of time, and normalized to the initial TEER value (36.7±4.3 Ωcm^2. (G) TEER and fluorescent dextran permeability were measured 24 hours after plating. Error bars represent the s.e.m. of three biological samples. ** p<0.005, VEGF (or oME) versus control; t test. […]

The subject of experiment [4] is hPSC-derived endothelial cells. The settings on record: 50 ng/ml VEGF, 24 h; day 60 endothelial cells. Here is the method:
To assess the formation of capillary structures, 1×10^5 endothelial cells in 0.4 ml EGM-2 medium (Lonza) supplemented with 50 ng/ml VEGF (R&D Systems) were plated into one well of 24-well tissue culture plate pre-coated with 250 μl Matrigel™ (BD Bioscience). Tube formation was observed by light microscopy after 24 h of incubation.

On to `CO[C@@H]1[C@@H]2OP(=O)(O)OC[C@H]2O[C@H]1n1c(Sc2ccc(Cl)cc2)nc2c(N)ncnc21` [8-pCPT-2′O-Me-cAMP, 8-(4-chlorophenylthio)-2′-O-Me-cAMP], for which the “transendothelial electrical resistance (TEER)” value in experiment [1] is given as “increased”. For the same compound, the “dextran permeability (40 kD)” value in experiment [2] is given as “decreased”.

Take `Cc1c[nH]c(-c2cnc(NCCNc3ccc(C#N)cn3)nc2-c2ccc(Cl)cc2Cl)n1` [CHIR99021]: the “CD31^+CD34^+ angioblasts generated” value in the experiment on 19-9-11 iPSCs (6-10 μM CHIR99021 2 days, then 3 days StemPro-34 without VEGF, day 5) came to 25%. The “CD34^+CD31^+ cells generated” value in the experiment on 19-9-11 iPSCs (CHIR99021 (6 μM) 2 days in LaSR basal medium, then 3 days StemPro-34 with or without VEGF, day 5) is listed as “more than 20%”. Besides, the “CD34^+CD31^+ cells produced” value in the experiment with 19-9-11 iPSCs (LaSR basal medium, CHIR99021 2 days then 3 days without, seeding density 50,000 cells per cm2 at day -3) amounted to 55%. For the same compound, the “CD34^+CD31^+ cells in 5 days” value in the experiment with 19-9-11 iPSCs (single basal medium: LaSR basal medium with CHIR99021 2 days, then 3 days same medium without) is listed as 25%; with 19-9-11 iPSCs (single basal medium: RPMI/B27 or EC medium containing serum, with CHIR99021 2 days, then 3 days without), “not supporting differentiation to any detectable CD34^+CD31^+ cells”. Further, the “Brachyury expressing cells by day 2” value in the experiment with 19-9-11 ishcat iPSCs was “virtually pure population”.

Regarding `O=C(NOC[C@H](O)CO)c1ccc(F)c(F)c1Nc1ccc(I)cc1F` [PD0325901], the “effect on CD34^+CD31^+ cell differentiation” value with H9 cells is “substantially diminished”.

On to BIO-acetoxime, for which the “induction of angioblast differentiation (percentage of CD34^+CD31^+ cells)” value in the experiment on 19-9-11 iPSCs was “effectively induced angioblast differentiation to a similar extent as CHIR99021”.

Regarding CHIR98014, the “induction of angioblast differentiation (percentage of CD34^+CD31^+ cells)” value with 19-9-11 iPSCs is listed as “effectively induced angioblast differentiation to a similar extent as CHIR99021”.

TNFα: the “expression of ICAM1” value in experiment [3] is recorded as “greatly increased”.

VEGF: in the experiment with 19-9-11 iPSCs (VEGF in StemPro-34 for 3 days after CHIR99021, day 5), the “effect of VEGF treatment on yield of CD34^+CD31^+ cells” value is “did not significantly increase”. Also, the “transendothelial electrical resistance (TEER)” value in experiment [1] is recorded as “sustained decrease”. The “dextran permeability (40 kD)” value in experiment [2] is “increase”. Moreover, the “vascular tube formation in Matrigel matrix” value in experiment [4] was “formed vascular tubes”.
